Legend:
[1] = tested on: B16F10 melanoma; details: BDF1 mice, B16F10 cells i.v. on day 1; compound i.v. at 100 mg/kg from day 0 to day 3; metastases counted on day 11
Procedure: Inhibition of the Formation of Metastases in the Mouse
The anti-tumour activity of the compounds of the invention was studied in the model of B16F10 melanoma grafted by the i.v. route. […] The parameter measured is thus the number of pulmonary metastases.
B16F1O tumour cells are injected by the i.v. route into BDF1 mice on day 1 (1 10^5 cells per mouse). The compounds are administered by the i.v. route at 100 mg/kg from day 0 to day 3 (7 animals per experimental group). On day 11, the animals are sacrificed and the pulmonary metastases are counted. The results are expressed as % inhibition compared with the control animals.

[2] = tested on: ovarian cancers; details: Becket et al., DDT 1996, 1, 16; cited from earlier work
[3] = tested on: rabbit cartilage collagen matrix degradation induced by IL-1β; details: read-out: IC50, collagen degradation (OH-proline release), IL-1β 10 ng/ml and plasmin 0.1 U/ml, 2 days
Procedure: The compounds of the invention were studied using a rabbit cartilage collagen matrix degradation model with degradation being induced by IL-1β. The tissue is placed in contact with IL -1β (10 ng/ml) and plasmin (0.1 U/ml) for 2 days. The fraction of OH-proline salted out by the tissue is evaluated by colorimetric measurement (GRANT R. A. Estimation of OH-proline by the autoanalyzer, J. Clin. Path. 1964, 17 685). The compounds of the invention were studied after the addition of various concentrations to the culture medium during the two days of the test.

| Structure (SMILES) | inhibition of the formation of pulmonary metastases, % inhibition compared with the control animals [1] [%] | anti-tumour activity in clinical use [2] | IC50 [3] [nM] |
| --- | --- | --- | --- |
| O=C(O)[C@H]1[C@H](Cn2nnc3ccccc3c2=O)CC[C@@H]1Sc1ccc(-c2ccc(Cl)cc2)cc1 (mixture of isomers) [Example 49, (1R,2S,5R)- and (1S,2R,5S)-2-[(4′-chloro-4-biphenyl)sulphanyl]-5-[(4-oxo-3,4-dihydro-1,2,3-benzotriazin-3-yl)methyl]-1-cyclopentanecarboxylic acid] | 73 |  |  |
| CNC(=O)[C@H](Cc1ccccc1)NC(=O)[C@H](CC(C)C)[C@H](CSc1cccs1)C(=O)NO [BB94] |  | active in ovarian cancers |  |
| O=C(NO)C(CCn1nnc2ccccc2c1=O)CSCCc1ccc(-c2ccc(Cl)cc2)cc1 (stereo not shown) [Example 93, 2-{[2-(4′-Chloro-4-biphenyl)ethyl]sulphanylmethyl}-N-hydroxy-4-(4-oxo-3,4-dihydro-1,2,3-benzotriazin-3-yl)butyramide] | 75 |  | 1900 |
